Experimental findings from ChEMBL document CHEMBL5620406, “Synthesis and biological evaluation of novel pyrazole amides as potent mitochondrial complex I inhibitors” (Eur J Med Chem, 2023) are described below.

The species named for one series is Homo sapiens. The series is described as follows: Inhibition of mitochondrial complex I (unknown origin) at 1 uM incubated for 15 mins by microplate reader analysis relative to control.
The nature of series [1]: Inhibition of mitochondrial complex I (unknown origin) incubated for 15 mins by microplate reader analysis. Also noted: species or system Homo sapiens.
Series [2] is described as follows: Efflux ratio of apparent permeability across basolateral to apical membrane to apical to basolateral membrane in human Caco-2 cells incubated for 120 mins by LC-MS/MS analysis. It is filed as ADME, cell-based.
For series [3], the system named is HCT-116. Description: Induction of mitochondrial membrane potential depolarization in human HCT-116 cells at 2 nM incubated for 24 hrs by JC-1 staining based flow cytometry analysis. It is filed as functional. (In flow cytometry, cells or beads pass a laser one at a time.)
The next series relates to NCM460. Description: Antiproliferative activity against human NCM460 cells assessed as inhibition of cell growth incubated for 96 hrs by MTT assay. As to conditions: NCM460, 96 h. The class given is functional, cell-based. On the technique in general: Tetrazolium dyes change colour on reduction, which living cells bring about.
The subject of series [4] is HCT-116. The series is described as follows: Antiproliferative activity against human HCT-116 cells assessed as inhibition of cell growth incubated for 96 hrs by MTT assay. It is filed as functional, cell-based. As to conditions: HCT-116, 96 h.
Series [5] is described as follows: Apparent permeability across apical to basolateral side in human Caco-2 cells incubated for 120 mins by LC-MS/MS analysis. The class given is ADME, cell-based. (Caco-2 monolayers are a common model of the intestinal barrier.)
For series [6], the system named is KG-1. The series is described as follows: Induction of ROS generation in human KG-1 cells at 32 nM measured for 30 mins by DCFDA-staining based flow cytometry analysis. The class given is functional, cell-based.
The test system of series [7] is KG-1. Description: Antiproliferative activity against human KG-1 cells assessed as inhibition of cell growth incubated for 96 hrs by MTT assay. The class given is functional, cell-based. Conditions: KG-1, 96 h.
The nature of series [8]: Apparent permeability across basolateral side to apical in human Caco-2 cells incubated for 120 mins by LC-MS/MS analysis. The class given is ADME, cell-based.

As usually defined, the inhibition is the drop in the measured response relative to a control, in per cent. Read a high inhibition as strong suppression. Broadly, the IC50 is the concentration needed to halve the response being measured. In general, efflux ratio refers to the permeability from basolateral to apical divided by that in the opposite direction, in the common usage. A word on the Papp A→B: it is the apparent permeability from the apical to the basolateral side of a cell layer. As usually defined, the Papp B→A is the apparent permeability from the basolateral to the apical side of a cell layer.

SMILES strings stand for the structures. Active and inactive are the calls of the source. The calls are words filed in the database; no cut-off is given here.

The molecule `Cc1cc(C(=O)Nc2ccc(OC(F)(F)F)cc2)nn1Cc1cccc(-c2ccc(C(C)(C)C)cc2)c1` showed an inhibition in the series filed under Homo sapiens of 29.6%.

Consider `Cc1ccc(Cn2nc(C(=O)Nc3ccc(OC(F)(F)F)cc3)cc2C)cc1`, for which, in the series listed under Homo sapiens, the inhibition was 8.06%.

In the case of `Cc1cc(C)cc(-c2cccc(Cn3nc(C(=O)Nc4ccc(OC(F)(F)F)cc4)cc3C)c2)c1`, in the series filed under Homo sapiens, the inhibition stood at 3.73%.

Molecule `Cc1cc(C(=O)Nc2ccc(OC(F)(F)F)cc2)nn1Cc1cccc(N2CCOCC2)c1` had an inhibition in the series filed under Homo sapiens of 8.94%.

With `Cc1cc(C(=O)Nc2ccc(OC(F)(F)F)cc2)nn1Cc1cccc(N2CCC(S(C)(=O)=O)CC2)c1`, the inhibition in the series listed under Homo sapiens was 49.7%. The IC50 in series [1] was found to be 0.96 µM.

`Cc1cc(C(=O)Nc2ccc(OC(F)(F)F)cc2)nn1Cc1ccccc1` registered an inhibition in the series listed under Homo sapiens of 1.03%.

For the molecule `Cc1nc(-c2nc(-c3ccc(OC(F)(F)F)cc3)no2)nn1Cc1cccc(N2CCC(S(C)(=O)=O)CC2)c1`, the inhibition in the series listed under Homo sapiens is 32.7%. In series [2], the efflux ratio at 2 h stood at 0.68. The molecule further returned an Activity in the series with HCT-116 [3] of 21.1%. Besides, the IC50 in the series on NCM460 was over 1 µM; in the series on HCT-116 [4], 0.00963 µM; in [1], 115 µM; with KG-1 [7] it was 0.0638 µM. In [5], the Papp A→B at 2 h worked out at 48.6 nm/s. For the same molecule, the result in the series with KG-1 [6] was Active. Besides, in series [8], the Papp B→A at 2 h was found to be 33.3 nm/s.

`Cc1cc(C(=O)Nc2ccc(OC(F)(F)F)cc2)nn1Cc1cccc(Br)c1`: the inhibition in the series filed under Homo sapiens was 1.54%.

The molecule `COc1cc(Cn2nc(C(=O)Nc3ccc(OC(F)(F)F)cc3)cc2C)cc(OC)c1` returned an inhibition in the series listed under Homo sapiens of 2.05%.

As to `Cc1cc(C(=O)Nc2ccccc2)nn1Cc1cccc(N2CCN(C(=O)C3CC3)CC2)c1`, the inhibition in the series listed under Homo sapiens turned out to be 7.12%.

Molecule `Cc1cc(C(=O)Nc2ccc(OC(F)(F)F)cc2)nn1Cc1cccc(N2CCS(=O)(=O)CC2)c1` returned an inhibition in the series listed under Homo sapiens of 6.09%.

`Cc1cn(Cc2cccc(N3CCC(S(C)(=O)=O)CC3)c2)nc1C(=O)Nc1ccc(OC(F)(F)F)cc1` displayed an inhibition in the series filed under Homo sapiens of 9.43%.

For the molecule `Cc1cc(C(=O)Nc2ccccc2OC(F)(F)F)nn1Cc1cccc(N2CCN(C(=O)C3CC3)CC2)c1`, the inhibition in the series listed under Homo sapiens came to 1.87%.

For `Cc1cc(C(=O)Nc2ccc(OC(F)(F)F)cc2)nn1Cc1ccc(F)c(Br)c1`, the inhibition in the series listed under Homo sapiens was determined as 1.32%.

Consider `Cc1cc(C(=O)Nc2ccc(Cl)c(F)c2)nn1Cc1cccc(N2CCN(C(=O)C3CC3)CC2)c1`, for which, in the series listed under Homo sapiens, the inhibition was 11.1%.

In the series filed under Homo sapiens, `Cc1cc(C(=O)Nc2ccc(OC(F)(F)F)cc2)nn1Cc1cccc(N(C)C2CCOCC2)c1` yielded an inhibition of 13.5%.

`C=C(C)[C@H]1Cc2c(ccc3c2O[C@@H]2COc4cc(OC)c(OC)cc4[C@@H]2C3=O)O1` displayed an inhibition in the series filed under Homo sapiens of 71.8%.

`CC(C)(C)c1cc(C(=O)Nc2ccc(OC(F)(F)F)cc2)nn1Cc1cccc(N2CCC(S(C)(=O)=O)CC2)c1` returned an inhibition in the series listed under Homo sapiens of 38.7%. The half-inhibitory concentration (IC50) in [1] was found to be 1.36 µM.

In turn, `Cc1ccc(NC(=O)c2cc(C)n(Cc3cccc(N4CCN(C(=O)C5CC5)CC4)c3)n2)cc1F` had an inhibition in the series listed under Homo sapiens of 3.49%.

With `Cc1cc(C(=O)Nc2ccc(OC(F)(F)F)cc2)nn1Cc1cccc(-c2ccccc2O)c1`, the inhibition in the series listed under Homo sapiens was 25.6%.

Molecule `CS(=O)(=O)C1CCN(c2cccc(Cn3nc(C(=O)Nc4ccc(OC(F)(F)F)cc4)c4c5nn(c6ccccc56)c43)c2)CC1` displayed an inhibition in the series filed under Homo sapiens of 1.12%. The IC50 in [1] was found to be 91.3 µM.

For `Cc1cc(C(=O)Nc2cc(F)cc(F)c2)nn1Cc1cccc(N2CCN(C(=O)C3CC3)CC2)c1`, the inhibition in the series filed under Homo sapiens turned out to be 9.58%.

Turning to `Cc1ccc(NC(=O)c2cc(C)n(Cc3cccc(N4CCN(C(=O)C5CC5)CC4)c3)n2)cc1`, the inhibition in the series filed under Homo sapiens was found to be 7.73%.

In the series listed under Homo sapiens, `CS(=O)(=O)C1CCN(c2cccc(Cn3nc(C(=O)Nc4ccc(OC(F)(F)F)cc4)c4c5nn(c6c5COCC6)c43)c2)CC1` came in with an inhibition of 13.2%. The IC50 in [1] came out at 101 µM.

Molecule `CS(=O)(=O)C1CCN(c2cccc(Cn3ccc(C(=O)Nc4ccc(OC(F)(F)F)cc4)n3)c2)CC1` had an inhibition in the series filed under Homo sapiens of 26.6%.

`Cc1cc(C(=O)Nc2ccc(OC(F)(F)F)cc2)nn1Cc1ccc2ccccc2c1`: in the series filed under Homo sapiens, the inhibition stood at 4.6%.

`COc1ccc(NC(=O)c2cc(C)n(Cc3cccc(N4CCN(C(=O)C5CC5)CC4)c3)n2)cc1OC` came in with an inhibition in the series filed under Homo sapiens of 4.85%.

`Cc1cc(C(=O)Nc2ccc(OC(F)(F)F)cc2)nn1Cc1cccc(N2CCN(S(C)(=O)=O)CC2)c1` came in with an inhibition in the series listed under Homo sapiens of 50.4%. This molecule had an IC50 in [1] of 1.06 µM.

Molecule `Cc1cc(C(=O)Nc2ccc(OC(F)(F)F)cc2)nn1Cc1cccc(S(=O)(=O)N2CCOCC2)c1` returned an inhibition in the series filed under Homo sapiens of 4.42%.

`Cc1cc(C(=O)Nc2ccc(OC(F)(F)F)cc2)nn1Cc1ccc(N2CCC(S(C)(=O)=O)CC2)cc1` yielded an inhibition in the series filed under Homo sapiens of 3.85%.

`COc1ccccc1-c1cccc(Cn2nc(C(=O)Nc3ccc(OC(F)(F)F)cc3)cc2C)c1` displayed an inhibition in the series filed under Homo sapiens of 3.57%.

With `CS(=O)(=O)C1CCN(c2cccc(Cn3nc(C(=O)Nc4ccc(OC(F)(F)F)cc4)cc3-c3ccccc3)c2)CC1`, the inhibition in the series listed under Homo sapiens came out at 36.3%. Moreover, in series [1], the IC50 came to 1.41 µM.

`Cc1cc(C(=O)Nc2ccc(OC(F)(F)F)cc2)nn1Cc1cccnc1` yielded an inhibition in the series listed under Homo sapiens of 1.37%.

`Cc1cc(C(=O)Nc2ccc(F)cc2)nn1Cc1cccc(N2CCN(C(=O)C3CC3)CC2)c1`: in the series filed under Homo sapiens, the inhibition amounted to 8.24%.

`Cc1cc(C(=O)Nc2ccccc2F)nn1Cc1cccc(N2CCN(C(=O)C3CC3)CC2)c1` showed an inhibition in the series filed under Homo sapiens of 1.72%.

For `COc1ccc(NC(=O)c2cc(C)n(Cc3cccc(N4CCN(C(=O)C5CC5)CC4)c3)n2)cc1`, the inhibition in the series filed under Homo sapiens amounted to 5.23%.

Turning to `CS(=O)(=O)C1CCN(c2cccc(Cn3nc(C(=O)Nc4ccc(OC(F)(F)F)cc4)c4c5nn(c6c5CCC6)c43)c2)CC1`, the inhibition in the series listed under Homo sapiens was found to be 29.2%. Moreover, the IC50 in [1] came out at 91.3 µM.

`Cc1cc(C(=O)Nc2cccc(OC(F)(F)F)c2)nn1Cc1cccc(N2CCN(C(=O)C3CC3)CC2)c1`: the inhibition in the series listed under Homo sapiens was found to be 3.1%.

The molecule `Cc1cc(C(=O)Nc2ccc(OC(F)(F)F)cc2)nn1Cc1cccc(-c2ccc(S(C)(=O)=O)cc2)c1` returned an inhibition in the series filed under Homo sapiens of 52.5%. The molecule also returned an IC50 in series [1] of 0.86 µM.

With `Cc1ccccc1Cn1nc(C(=O)Nc2ccc(OC(F)(F)F)cc2)cc1C`, the inhibition in the series listed under Homo sapiens stood at 1.7%.

On to `Cc1cc(C(=O)Nc2cccc(F)c2)nn1Cc1cccc(N2CCN(C(=O)C3CC3)CC2)c1`, for which the inhibition in the series filed under Homo sapiens came to 1.54%.

In the series listed under Homo sapiens, `Cc1cc(C(=O)Nc2cccnc2)nn1Cc1cccc(N2CCN(C(=O)C3CC3)CC2)c1` gave an inhibition of 16.1%.

As to `Cc1cccc(NC(=O)c2cc(C)n(Cc3cccc(N4CCN(C(=O)C5CC5)CC4)c3)n2)c1`, the inhibition in the series filed under Homo sapiens stood at 6.44%.
